Measured values reported in patent US5661182A, “Method for lowering oxygen affinity of hemoglobin in redcell suspensions, in whole blood and in vivo” (Virginia Commonwealth University, priority 1995, dated 1997).
“Also recorded” adds a separate entry of the source.

Tests used:
deoxyhemoglobin [1] = target: T1, deoxyhemoglobin (Homo sapiens, UniProt P68871+P69905); assay: X-ray crystallographic studies with deoxyhemoglobin; type: binding; conditions: near Arg 104β
Method: X-ray Crystallographic Studies. Hemoglobin for the crystal studies was prepared from human blood, and T-state deoxy crystals were obtained from ammonium sulfate solutions. RSR-4 or RSR-13 (2 effectors/I Hb) was dissolved in a slight excess of sodium bicarbonate to facilitate dissolution and was added to a 6 g % solution of deoxy-Hb in the glove box. A 1 g % Hb RSR-4 or RSR-13 solution was added to each crystallization tube. Crystals grew in approximately 1 week. X-ray data were collected with Friedel pairs using ω scans on a Rigaku AFC5R diffractometer equipped with a rotating anode and a 60-cm long evacuated beam tunnel. The crystals with allosteric effectors were isomorphous with native deoxy-Hb: RSR-4, 63.2, 83.7, and 53.8 Å, 99.4°; RSR-13, 63.2, 83.6, and 53.7 Å, 99.5°. Data collection (RSR-4 to 2.4-Å and RSR-13 to 2.8-Å resolution) was controlled by TEXAN software from Molecular Structure Corp. (The Woodlands, Tex.). There was little radiation damage to crystals, and new crystals were mounted when standard reference reflection intensities fell by 10%. All data were corrected for radiation damage when appropriate. The R-factors for the Friedel pairs and derivatives vs. native were as follows: RSR-4 (2.4 Å), 14.6% and 18.9%, and RSR-13 (2.8 Å), 7.2% and 12.5%, respectively. The difference electron density maps were obtained using the Cambridge computer programs (CCP4). […] The allosteric effector molecules were well resolved and easily fit to the difference density.

hemoglobin [2] = assay: Comparison of allosteric effector strength (right shift of oxygen equilibrium curve); type: biochemical; conditions: compounds of FIG. 1
deoxyhemoglobin [3] = target: T1, deoxyhemoglobin; conditions: X-ray, literature; cited from earlier work
hemoglobin [4] = conditions: hemoglobin solutions, fresh intact red cells; cited from earlier work
[5] = cited from earlier work
bovine red cells = assay: Hemolysis of bovine red cells in vitro; type: cell-based
human red cells = assay: Hemolysis of human red cells in vitro; type: cell-based
[6] = target: hemoglobin in fresh human red blood cells (Homo sapiens, UniProt P68871+P69905); assay: Oxygen equilibrium curves of fresh human red cell suspensions (p50); type: cell-based; conditions: presence of DIDS
Method: Human blood was collected on heparin from healthy nonsmoking donors. Bovine blood was provided by Pr Delpech, INA (Paris-Grignon). Red blood cells were washed three times in isotonic buffer, kept at 4° C., and used within 24 h after sampling. Hemoglobin Yakima, a high-oxygen-affinity variant [α2 β2 99 (G1) Asp>>His], was obtained from a known heterozygous carrier. Fresh Yakima red cells were processed in the same way as described above.
L3,5 and L3,4,5 were provided by Dr. Lalezari (Montefiore Hospital, New York); RSR-4 [2-[4-[[(3,5-dichloroanilino)carbonyl]methyl]phenoxy]-2-methylpropionic acid]and RSR13 [2-4-[[(3,5- dimethylanilino)carbonyl]methyl]phenoxy]-2-methylpropionic acid] have been synthesized following the procedure described in Randad et al. (J. Med. Chem. 34,752 (1991)). Human serum albumin (HSA), bovine serum albumin (BSA) and 4,4'diisothiocyanatostilbene-2,2'-disulfonate (DIDS) were purchased from Sigma (St. Louis, Mo.). Due to their low solubility in aqueous buffer, 10 mM stock solutions of the compounds were prepared in a slight exccess of sodium bicarbonate and back-titrated to pH 7.4. For example, RSR-4 or RSR-13 was dissolved at 60° C. in a 140 mM NaCl and 50 mM bis-Tris buffer at room temperature upon progressive addition of NaHCO3 to obtain 10 mM stock solutions. The pH was carefully adjusted to 7.4 after complete solubilization and before use of the solutions. Fresh solutions were prepared each week. Stock solutions of DIDS (1 mM) were prepared, in the dark, on the day of the experiments in a pH 7.4 buffer. Human serum albumin (defatted HSA) and bovine serum albumin (BSA) were prepared freshly as 1 mM stock solutions, pH 7.4. Equilibrium Measurements. The allosteric modulation of the effectors on freshly prepared solutions of hemoglobin or red cell suspensions was measured by the change in p50, the partial pressure of oxygen for half-saturation. Oxygen equilibrium curves (OEC) were carried out with the Hemox analyzer (TCS, Southampton, Pa.) under the following conditions: pH 7.4, 140 mM NaCl and 50 mM bis-Tris buffer at 37° C. In all experiments, the concentration of hemoglobin in the red cell suspensions was 20-25 μM hemoglobin tetramer (Hb4) as measured by Drabkin's method (cyanomethemoglobin) at the end of each recording. The final concentration of the allosteric effector in the cuvette was 0.5 mM, resulting in an effector/Hb4 ratio of 20 in the absence of albumin. OEC were also made in the same buffer containing 12.5, 25, 50, and 100 μM HSA (for human red cell suspensions) or BSA (for bovine cell suspensions). The serum albumin experiments were carried out with traces of an antifoaming agent. This agent has no deleterious effect on the red cell suspensions. The molar ratio of albumin to tetrameric hemoglobin was varied from 0.5 (at 12.5 μM HSA) to 4 (at 100 μM HSA); in whole blood this ratio is approximately 0.3 (0.7 mM albumin plus plasma proteins/2.25 mM Hb4). Therefore, the concentration of albumin used in the present studies was always larger relative to tetrameric hemoglobin than that found in whole blood.
Equilibrium oxygen binding curves were also recorded for red cell suspensions (10% hematocrit) that had been reacted for 30 min in the dark at 37° C. with 20 μM DIDS, a specific inhibitor of the red cell membrane anion channel. Kinetic Experiments. The kinetics of the interaction between the effectors and intracellular hemoglobin were measured in the absence and presence of varying concentrations of HSA. The red cell suspensions were equilibrated under room air (pO2 =140 mmHg) at 37° C. in the optical cuvette of the Hemox analyzer, which provides a constant stirring of the suspensions. […] Changes in absorbance were recorded and stored on tape for further analyses. […]

purified Hb Yakima = assay: Effect on purified Hb Yakima; type: biochemical, human

| Structure (SMILES) | second symmetry-related pair of binding sites (deoxyhemoglobin [1]) | allosteric effector strength (hemoglobin [2]) | binding site in deoxyhemoglobin (prior art, words) (deoxyhemoglobin [3]) | lowering of oxygen affinity / allosteric potency (prior art, words) (hemoglobin [4]) | state of purified Hb Yakima in the presence of effector (purified Hb Yakima) | further results |
| --- | --- | --- | --- | --- | --- | --- |
| CC(C)(Oc1ccc(CNC(=O)c2ccc(Cl)cc2)cc1)C(=O)O [MM-25] | have a second symmetry-related pair of binding sites near Arg 104β | somewhat stronger than bezafibrate |  |  |  |  |
| CC(C)(Oc1ccc(CCNC(=O)c2ccc(Cl)cc2)cc1)C(=O)O [bezafibrate] |  | weakest effector; also recorded: much stronger allosteric effect | bind to the same sites in the central water cavity of deoxyhemoglobin | much more effective in lowering the oxygen affinity of hemoglobin solutions and suspensions of fresh, intact red cells |  | inhibition of effect by serum albumin (prior art, words) [5]: significantly inhibited by serum albumin |
| Cc1cc(C)cc(NC(=O)Cc2ccc(OC(C)(C)C(=O)O)cc2)c1 [RSR-3] |  |  |  |  |  | hemolysis (bovine red cells): No hemolysis; hemolysis (human red cells): No hemolysis |
| CC(C)(Oc1ccc(NC(=O)Nc2cc(Cl)c(Cl)c(Cl)c2)cc1)C(=O)O [L3,4,5, reference compound] | have a second symmetry-related pair of binding sites near Arg 104β | much stronger allosteric effect |  |  | remains locked in the high-affinity R-state | effect of DIDS (anion channel inhibitor) on the effect of the compounds [6]: does not inhibit the effects of the compounds |
| CC(C)(Oc1ccc(Cl)cc1)C(=O)O [clofibric acid] |  | only a relatively small effect in terms of lowering the oxygen affinity of hemoglobin | bind to the same sites in the central water cavity of deoxyhemoglobin | lowered the oxygen affinity of hemoglobin solutions |  |  |
| O=C(O)C(COP(=O)(O)O)OP(=O)(O)O (stereo not shown) [DPG, 2,3-diphospho-glyceric acid] |  |  |  |  | remains locked in the high-affinity R-state |  |
